Experimental findings from patent US12582641B2, “Sulfur-containing compound based on glutarimide skeleton and application thereof” (SHANGHAITECH UNIVERSITY, priority 2019, dated 2026) are described below.

Read-outs that look alike come from different tables or passages of the source.

The test system of this assay is MM.1S cells. Briefly: Proliferation inhibition (IC50) in MM.1S cells, cell viability assay. Particulars: Homo sapiens, MM1.S, 72 h.
Setting [1] is: read-out: IC50 (nM), proliferation inhibitory activity of MM.1S cells (half inhibitory concentration).

On to `CN(C)CCCCCSc1cccc2c1CN(C1CCC(=O)NC1=O)C2=O` (stereo not drawn) [SIAIS1216089, 3-(4-((5-(dimethylamino)pentyl)thio)-1-oxoisoindolin-2-yl)piperidine-2,6-dione], for which the IC50 under setting [1] worked out at 2.83 ± 0.76 nM.

Turning to `CC(=O)NCCCCCSc1cccc2c1CN(C1CCC(=O)NC1=O)C2=O` (stereo not drawn) [SIAIS1216095, N-(5-((2-(2,6-dioxopiperidin-3-yl)-1-oxoisoindolin-4-yl)thio)pentyl)acetamide], the IC50 under setting [1] stood at 1.53 ± 0.4 nM.

As for `O=C1CCC(N2Cc3c(SCCCCCCCCSc4cccc5c4CN(C4CCC(=O)NC4=O)C5=O)cccc3C2=O)C(=O)N1` (stereo not drawn) [SIAIS1216137B, 3,3′-((octane-1,8-diylbis(sulfanediyl))bis(1-oxoisoindoline-4,2-diyl))bis(piperidine-2,6-dione)], the IC50 under setting [1] was 1.41 nM.

For `CCN(CC)CCCCCSc1cccc2c1CN(C1CCC(=O)NC1=O)C2=O` (stereo not drawn) [SIAIS1216139, 3-(4-((5-(diethylamino)pentyl)thio)-1-oxoisoindolin-2-yl)piperidine-2,6-dione], the IC50 under setting [1] is 4.06 ± 0.64 nM.

Turning to `CNCCCCCSc1cccc2c1CN(C1CCC(=O)NC1=O)C2=O` (stereo not drawn) [SIAIS1216141, 3-(4-((5-(methylamino)pentyl)thio)-1-oxoisoindolin-2-yl)piperidine-2,6-dione], the IC50 under setting [1] came out at 12.6 ± 3.47 nM.

`O=C1CCC(N2Cc3c(SCCCCCCCCN4CCOCC4)cccc3C2=O)C(=O)N1` (stereo not drawn) [SIAIS1216143, 3-(4-((8-morpholinooctyl)thio)-1-oxoisoindolin-2-yl)piperidine-2,6-dione]: the IC50 under setting [1] came to 0.17 ± 0.04 nM.

Consider `O=C1CCC(N2Cc3c(SCCCCCCCCN4CCNCC4)cccc3C2=O)C(=O)N1` (stereo not drawn) [SIAIS1216145, 3-(1-oxo-4-((8-(piperazin-1-yl)octyl)thio)isoindolin-2-yl)piperidine-2,6-dione], for which the IC50 under setting [1] turned out to be 3.86 ± 0.87 nM.

For `CCN(CC)CCCCCCCCSc1cccc2c1CN(C1CCC(=O)NC1=O)C2=O` (stereo not drawn) [SIAIS1216147, 3-(4-((8-(diethylamino)octyl)thio)-1-oxoisoindolin-2-yl)piperidine-2,6-dione], under setting [1], the IC50 was 0.19 ± 0.04 nM.

With `CN(C)CCCCCCCCSc1cccc2c1CN(C1CCC(=O)NC1=O)C2=O` (stereo not drawn) [SIAIS1216149, 3-(4-((8-(dimethylamino)octyl)thio)-1-oxoisoindolin-2-yl)piperidine-2,6-dione], under setting [1], the IC50 turned out to be 0.32 ± 0.15 nM.

Take `CNCCCCCCCCSc1cccc2c1CN(C1CCC(=O)NC1=O)C2=O` (stereo not drawn) [SIAIS1216151, 3-(4-((8-(methylamino)octyl)thio)-1-oxoisoindolin-2-yl)piperidine-2,6-dione]: the IC50 under setting [1] was 0.33 ± 0.15 nM.

For the compound `O=C1CCC(N2Cc3c(SCCCO)cccc3C2=O)C(=O)N1` (stereo not drawn) [SIAIS1216189, 3-(4-((3-hydroxypropyl)thio)-1-oxoisoindolin-2-yl)piperidine-2,6-dione], the IC50 under setting [1] was found to be 2.25 nM.

In the case of `CN(C)CCOCCOCCSc1cccc2c1CN(C1CCC(=O)NC1=O)C2=O` (stereo not drawn) [SIAIS1216195, 3-(4-((2-(2-(2-(dimethylamino)ethoxy)ethoxy)ethyl)thio)-1-oxoisoindolin-2-yl)piperidine-2,6-dione], the IC50 under setting [1] worked out at 4.96 ± 0.54 nM.

Take `O=C1CCC(N2Cc3c(SCCCCCCCCN4CCCCC4)cccc3C2=O)C(=O)N1` (stereo not drawn) [SIAIS1220009, 3-(1-oxo-4-((8-(piperidin-1-yl)octyl)thio)isoindolin-2-yl)piperidine-2,6-dione]: the IC50 was 0.12 ± 0.03 nM under setting [1] and around 0.12 nM (read-out: IC50 against MM.1S cells (proliferation inhibition)).

With `CN1CCN(CCCCCCCCSc2cccc3c2CN(C2CCC(=O)NC2=O)C3=O)CC1` (stereo not drawn) [SIAIS1220011, 3-(4-((8-(4-methylpiperazin-1-yl)octyl)thio)-1-oxoisoindolin-2-yl)piperidine-2,6-dione], the IC50 under setting [1] is 0.57 ± 0.21 nM.

As for `O=C1CCC(N2Cc3c(SCCCCCCCCN4CCCNCC4)cccc3C2=O)C(=O)N1` (stereo not drawn) [SIAIS1220017, 3-(4-((8-(1,4-diazepan-1-yl)octyl)thio)-1-oxoisoindolin-2-yl)piperidine-2,6-dione], under setting [1], the IC50 came to 2.77 nM.

For `O=C1CCC(N2Cc3c(SCCCCCCCCN4CCC(N5CCNCC5)CC4)cccc3C2=O)C(=O)N1` (stereo not drawn) [SIAIS1220019, 3-(1-oxo-4-((8-(4-(piperazin-1-yl)piperidin-1-yl)octyl)thio)isoindolin-2-yl)piperidine-2,6-dione], the IC50 under setting [1] came out at 2.08 nM.

For the compound `CC(C)N(CCCCCCCCSc1cccc2c1CN(C1CCC(=O)NC1=O)C2=O)C(C)C` (stereo not drawn) [SIAIS1220021, 3-(4-((8-(diisopropylamino)octyl)thio)-1-oxoisoindolin-2-yl)piperidine-2,6-dione], under setting [1], the IC50 was determined as 0.16 ± 0.05 nM.

Consider `O=C1CCC(N2Cc3c(SCCCCCCCCCCN4CCOCC4)cccc3C2=O)C(=O)N1` (stereo not drawn) [SIAIS1220023, 3-(4-((10-morpholinodecyl)thio)-1-oxoisoindolin-2-yl)piperidine-2,6-dione], for which, under setting [1], the IC50 stood at 0.46 ± 0.19 nM.

With `CCN(CC)CCCCCCCCCCSc1cccc2c1CN(C1CCC(=O)NC1=O)C2=O` (stereo not drawn) [SIAIS1220025, 3-(4-((10-(diethylamino)decyl)thio)-1-oxoisoindolin-2-yl)piperidine-2,6-dione], the IC50 under setting [1] was 0.49 ± 0.05 nM.

With `O=C1CCC(N2Cc3c(SCCCCCCN4CCOCC4)cccc3C2=O)C(=O)N1` (stereo not drawn) [SIAIS1220027, 3-(4-((6-morpholinohexyl)thio)-1-oxoisoindolin-2-yl)piperidine-2,6-dione], the IC50 under setting [1] turned out to be 0.7 nM.

In the case of `CCN(CC)CCCCCCSc1cccc2c1CN(C1CCC(=O)NC1=O)C2=O` (stereo not drawn) [SIAIS1220029, 3-(4-((6-(diethylamino)hexyl)thio)-1-oxoisoindolin-2-yl)piperidine-2,6-dione], the IC50 under setting [1] worked out at 1.13 nM.

Take `O=C1CCC(N2Cc3c(SCCCCCCCN4CCOCC4)cccc3C2=O)C(=O)N1` (stereo not drawn) [SIAIS1220031, 3-(4-((7-morpholinoheptyl)thio)-1-oxoisoindolin-2-yl)piperidine-2,6-dione]: the IC50 under setting [1] was 0.22 ± 0.04 nM.

For `CCN(CC)CCCCCCCSc1cccc2c1CN(C1CCC(=O)NC1=O)C2=O` (stereo not drawn) [SIAIS1220033, 3-(4-((7-(diethylamino)heptyl)thio)-1-oxoisoindolin-2-yl)piperidine-2,6-dione], the IC50 under setting [1] amounted to 0.23 ± 0.08 nM.

`CCN(CC)CCNCCCCCSc1cccc2c1CN(C1CCC(=O)NC1=O)C2=O` (stereo not drawn) [SIAIS1220035, 3-(4-((5-((2-(diethylamino)ethyl)amino)pentyl)thio)-1-oxoisoindolin-2-yl)piperidine-2,6-dione]: the IC50 under setting [1] was determined as 4.13 ± 1.43 nM.

Take `CCN(CC)CCNCCCCCCCCSc1cccc2c1CN(C1CCC(=O)NC1=O)C2=O` (stereo not drawn) [SIAIS1220037, 3-(4-((8-((2-(diethylamino)ethyl)amino)octyl)thio)-1-oxoisoindolin-2-yl)piperidine-2,6-dione]: the IC50 under setting [1] was 0.83 ± 0.39 nM.

As for `O=C1CCC(N2Cc3c(SCCCCCCCCCCCN4CCOCC4)cccc3C2=O)C(=O)N1` (stereo not drawn) [SIAIS1220045, 3-(4-((11-morpholinoundecyl)thio)-1-oxoisoindolin-2-yl)piperidine-2,6-dione], under setting [1], the IC50 was 0.36 ± 0.13 nM.

Turning to `CCN(CC)CCCCCCCCCCCSc1cccc2c1CN(C1CCC(=O)NC1=O)C2=O` (stereo not drawn) [SIAIS1220047, 3-(4-((11-(diethylamino)undecyl)thio)-1-oxoisoindolin-2-yl)piperidine-2,6-dione], the IC50 under setting [1] came to 0.11 ± 0.01 nM.

For `CN1CCN(C2CCN(CCCCCCCCSc3cccc4c3CN(C3CCC(=O)NC3=O)C4=O)CC2)CC1` (stereo not drawn) [SIAIS1220049, 3-(4-((8-(4-(4-methylpiperazin-1-yl)piperidin-1-yl)octyl)thio)-1-oxoisoindolin-2-yl)piperidine-2,6-dione], under setting [1], the IC50 is 0.26 nM.

As to `CN1CCCN(CCCCCCCCSc2cccc3c2CN(C2CCC(=O)NC2=O)C3=O)CC1` (stereo not drawn) [SIAIS1220051, 3-(4-((8-(4-methyl-1,4-diazepan-1-yl)octyl)thio)-1-oxoisoindolin-2-yl)piperidine-2,6-dione], the IC50 under setting [1] stood at 0.75 nM.

As to `O=C1CCC(N2Cc3c(SCCCCCCCCN4CCC(F)(F)CC4)cccc3C2=O)C(=O)N1` (stereo not drawn) [SIAIS1220055, 3-(4-((8-(4,4-difluoropiperidin-1-yl)octyl)thio)-1-oxoisoindolin-2-yl)piperidine-2,6-dione], the IC50 under setting [1] turned out to be 0.26 nM.

For the compound `CC1CN(CCCCCCCCSc2cccc3c2CN(C2CCC(=O)NC2=O)C3=O)CC(C)N1` (stereo not drawn) [SIAIS1220057, 3-(4-((8-(3,5-dimethylpiperazin-1-yl)octyl)thio)-1-oxoisoindolin-2-yl)piperidine-2,6-dione], the IC50 under setting [1] is 0.77 nM.

Consider `O=C1CCC(N2Cc3c(SCCCCCCCCCSc4cccc5c4CN(C4CCC(=O)NC4=O)C5=O)cccc3C2=O)C(=O)N1` (stereo not drawn) [SIAIS1220059B, 3,3′-((nonane-1,9-diylbis(sulfanediyl))bis(1-oxoisoindoline-4,2-diyl))bis(piperidine-2,6-dione)], for which the IC50 under setting [1] came out at 1.7 nM.

For `O=C1CCC(N2Cc3c(SCCCCCCCCN4CCN(CCCCCCCCSc5cccc6c5CN(C5CCC(=O)NC5=O)C6=O)CC4)cccc3C2=O)C(=O)N1` (stereo not drawn) [SIAIS1220061, 3,3′-(((piperazine-1,4-diylbis(octane-8,1-diyl))bis(sulfanediyl))bis(1-oxoisoindoline-4,2-diyl))bis(piperidine-2,6-dione)], under setting [1], the IC50 amounted to 0.49 nM.

On to `O=C1CCC(N2Cc3c(SCCCCCCCCCN4CCOCC4)cccc3C2=O)C(=O)N1` (stereo not drawn) [SIAIS1220065, 3-(4-((9-morpholinononyl)thio)-1-oxoisoindolin-2-yl)piperidine-2,6-dione], for which the IC50 under setting [1] turned out to be 0.49 nM.

As to `CCN(CC)CCCCCCCCCSc1cccc2c1CN(C1CCC(=O)NC1=O)C2=O` (stereo not drawn) [SIAIS1220067, 3-(4-((9-(diethylamino)nonyl)thio)-1-oxoisoindolin-2-yl)piperidine-2,6-dione], the IC50 under setting [1] was 0.25 nM.

Turning to `O=C1CCC(N2Cc3c(SCCCCCO)cccc3C2=O)C(=O)N1` (stereo not drawn) [SIAIS1220069, 3-(4-((5-hydroxypentyl)thio)-1-oxoisoindolin-2-yl)piperidine-2,6-dione], under setting [1], the IC50 stood at 3.21 nM.

On to `O=C1CCC(N2Cc3c(SCCCCCCCCNC45CC6CC(CC(C6)C4)C5)cccc3C2=O)C(=O)N1` (stereo not drawn) [SIAIS1220087, 3-(4-((8-((adamantan-1-yl)amino)octyl)thio)-1-oxoisoindolin-2-yl)piperidine-2,6-dione], for which the IC50 under setting [1] amounted to 0.12 nM.

With `O=C1CCC(N2Cc3c(SCCCCCCCCNC4C5CC6CC(C5)CC4C6)cccc3C2=O)C(=O)N1` (stereo not drawn) [SIAIS1220089, 3-(4-((8-((adamantan-2-yl)amino)octyl)thio)-1-oxoisoindolin-2-yl)piperidine-2,6-dione], under setting [1], the IC50 is 0.07 nM.
